From the NIST ThermoML archive (doi:10.1021/je060314n)
± gives the expanded uncertainty stated by the source.

How the values were obtained:
[1] = refractive index (Na D-line) (dimensionless); conditions: 298.15 K; 101.33 kPa; Liquid; Standard Abbe refractometry
[2] = Liquid; for mass density: 298.15 K, 101.33 kPa, Vibrating tube method

## CCCCOC(=O)CC [butyl propanoate]
[1]
  refractive index: 1.3992 ± 0.0005
[2]
  mass density: 870.88 ± 0.23 kg/m3
[2]; 418.69 K
  vapor or sublimation pressure: 101.3 ± 2 kPa

## CCCOCCC [dipropyl ether]
[1]
  refractive index: 1.3784 ± 0.0005
[2]
  mass density: 741.81 ± 0.16 kg/m3
[2]; 363.16 K
  vapor or sublimation pressure: 101.3 ± 2 kPa

## CCCO [propan-1-ol]
[1]
  refractive index: 1.3836 ± 0.0005
[2]
  mass density: 799.62 ± 0.14 kg/m3
[2]; 369.75 K
  vapor or sublimation pressure: 101.3 ± 2 kPa
